From patent EP2576536B1, “HAEMATOPOIETIC-PROSTAGLANDIN D2 SYNTHASE INHIBITORS” (priority 2010, dated 2011) come the findings set out here.

Where “and” joins values, the source holds several entries; their conditions need not be identical. Identical values can stand only once. Like-named read-outs stand apart in the source and are kept apart here.

Series [1] concerns MEG-01S human megakaryocytes. Description: A23187-inducible PGD2 production in PMA-differentiated MEG-01S (EIA). Type of series: cell-based. The following applies: 0-100 µM, 30 min before 5 µM A23187 (Figure 3A). Here is the method: All bone marrow-derived macrophages (BMM) were obtained by culturing bone marrow cells from the femurs of 6 to 8 week old C57BL/6 male mice in RPMI 1640 medium (Invitrogen Life Technologies, Carlsbad, CA, USA) supplemented with 10 % Fetal calf serum (Invitrogen) 20 U/ml penicillin and 20 µg/ml streptomycin (Invitrogen), 2 mM L-glutamine (Glutamax-1, Invitrogen) in the presence of 10^4 U/ml (100 ng/mL) recombinant human CSF-1 (a gift from Chiron, Emeryville, CA) on bacteriological plastic plates for 7 days. The human megakaryocytic cell line MEG-01S was obtained from the American Type Culture Collection. MEG-01S were maintained in the same media as for BMM, supplemented with 1 mM Sodium Pyruvate (Invitrogen).
BMM were seeded overnight at 2 x 10^5 cells/ml in 24 well plates before treatment with compound at either 10 µM or 0.1 - 100 µM for 24 h in the presence or absence of lipopolysaccharide (LPS) from Salmonella Minnesota (Sigma-Aldrich) at a final concentration of 10 ng/ml. […] Supernatants were collected and samples were analysed for PGD2 using Prostaglandin D2 Mox Express EIA kits, PGE2 using Prostaglandin E2 Express EIA kits, the prostacyclin derivative 6-keto PGF1α using the 6-keto Prostaglandin F1α EIA Kit and the Thromboxane A2 derivative TXB2 using the Thromboxane B2 Express EIA kit (Cayman Chemical) according to the manufacturer's instructions. […]

The nature of series [2]: Rat pharmacokinetics, plasma concentration by LC-MS/MS after oral dose. The class given is in vivo, Sprague Dawley rats. As to the method: Male adult Sprague Dawley rates (~165g) received a single oral bolus dose of 40mg/kg of compound 3 in a 0.5% methylcellulose/0.1% Tween80 by oral gavage. Rats were sacrificed when collecting blood and spleen samples just prior to dosing and at 0.5 hours, 2h, 8h and 24h (n=3 rats per time point), and the plasma concentration of compound 3 and the spleen PGD2 concentration was measured at each time point.
Blood samples were removed and kept cold at approximately 4°C immediately after collection to minimize degradation and centrifuged as soon as possible at approximately 4000 x g for 10 min. The plasma was transferred to a clean, pre-labelled polypropylene tube and frozen. Samples were stored at -20°C as soon as possible after collection to minimise degradation of the test item.
Plasma concentrations of 3 were determined using a screening LC-ms/ms method developed using the following parameters:
Samples were analysed alongside plasma standards. Concentration data were determined by back calculation from standard curve.

Series [3] deals with mouse primary bone marrow-derived macrophages (BMM). Description: LPS-inducible PGE2, 6-keto PGF1α and TXB2 production from BMM (EIA), specificity. The class given is cell-based. The following applies: 24 h. As to the method:
The human megakaryocytic cell line MEG-01S was obtained from the American Type Culture Collection. MEG-01S were maintained in the same media as for BMM, supplemented with 1 mM Sodium Pyruvate (Invitrogen).
BMM were seeded overnight at 2 x 10^5 cells/ml in 24 well plates before treatment with compound at either 10 µM or 0.1 - 100 µM for 24 h in the presence or absence of lipopolysaccharide (LPS) from Salmonella Minnesota (Sigma-Aldrich) at a final concentration of 10 ng/ml. MEG-01S were seeded at 2 x 10^5 cells/ml and stimulated with PMA (Phorbol 12-myristate 13-acetate) (Sigma-Aldrich) at a final concentration of 0.1 µM for 16 h.

With `NC(=O)[C@H](Cc1ccccc1)NC(=O)c1ccc(-c2cccs2)nc1` [Compound 3, N-(1-amino-1-oxo-3-phenylpropan-2-yl)-6-(thiophen-2-yl)-nicotinamide], the “A23187-inducible PGD2 production” value in series [1] is “inhibited A23187-inducible PGD2 production from PMA-differentiated MEG-01S human megakaryocytes dose-dependently”. In addition, the “Concentration” value was 0.263 µg/mL and 0.218 µg/mL in series [2] (individual rat, 0.5 h after 40mg/kg oral gavage); 0.0735 µg/mL and 0.107 µg/mL in series [2] (individual rat, 2 h after 40mg/kg oral gavage); 0.0173 µg/mL and 0.0639 µg/mL and 0.0518 µg/mL in series [2] (individual rat, 8 h after 40mg/kg oral gavage). The “Concentration (ng/mL)” value in series [2] (individual rat, 24 h after 40mg/kg oral gavage) is recorded as “BLOQ^2”. In addition, the concentration at 0.5 h in series [2] (male, Sprague Dawley, rat, plasma, oral, 40 mg/kg, 0.5 h after 40mg/kg oral gavage, N 3, read-out: Mean (± sem) Concentration) amounted to 0.219 ± 0.0248 µg/mL; in series [2] (male, Sprague Dawley, rat, plasma, oral, 40 mg/kg, individual rat, 0.5 h after 40mg/kg oral gavage, read-out: Concentration), 0.177 µg/mL. For the same molecule, the concentration at 2 h in series [2] (male, Sprague Dawley, rat, plasma, oral, 40 mg/kg, 2 h after 40mg/kg oral gavage, N 3, read-out: Mean (± sem) Concentration) was determined as 0.0918 ± 0.00979 µg/mL; in series [2] (male, Sprague Dawley, rat, plasma, oral, 40 mg/kg, individual rat, 2 h after 40mg/kg oral gavage, read-out: Concentration) it was 0.0948 µg/mL. Besides, the concentration at 8 h in series [2] (male, Sprague Dawley, rat, plasma, oral, 40 mg/kg, 8 h after 40mg/kg oral gavage, N 3, read-out: Mean (± sem) Concentration) was found to be 0.0443 ± 0.014 µg/mL. The concentration at 24 h in series [2] (male, Sprague Dawley, rat, plasma, oral, 40 mg/kg, 24 h after 40mg/kg oral gavage, N 3, BLOQ treated as 0.5 ng/mL, read-out: Mean (± sem) Concentration) stood at 0.000677 ± 0.000177 µg/mL; in series [2] (male, Sprague Dawley, rat, plasma, oral, 40 mg/kg, individual rat, 24 h after 40mg/kg oral gavage, read-out: Concentration), 0.00103 µg/mL. In series [2] (rat, 40mg/kg oral gavage), the oral bioavailability result is “orally bioavailable”. Besides, the “presence in the serum” value in series [2] (rat, 8 hours post delivery, 40mg/kg oral) is given as “present”. In series [3], the “concentration above which PGE2, 6-keto PGF1α and TXB2 inhibition was observed” value is on record as “above 10 µM”. The “differential effect in inhibition of PGD2 versus PGE2, 6-keto PGF1α or TXB2 (selectivity)” value in series [3] (0-100 µM) was “striking selectivity”.
